Test results taken from US20250051319A1 (AUGUSTINE THERAPEUTICS, priority 2021, published 2025).

How the values were obtained:
[1] = target: catalytic domain 2 (CD2) of HDAC6 (Homo sapiens (Human), UniProt Q9UBN7); assay: Cellular target engagement assay - NanoBRET; format: cell-based; conditions: NanoLuc-HDAC6(CD2) in HEK293T cells, 2 hours, read-out: IC50 (HDAC6(CD2) interaction)
[2] = target: human full-length recombinant HDAC6 (Homo sapiens (Human), UniProt Q9UBN7); assay: HDAC6 enzymatic activity assay (Reaction Biology Corporation, RHKKAc fluorogenic peptide); format: biochemical; conditions: Reaction Biology Corporation protocol, RHKKAc fluorogenic peptide 10 μM; read-out: HDAC6 biochem
Experimental: (§1) Dose response testing of HDAC6 and HDAC 1 were run at Reaction Biology Corporation (RBC). Inhibition of HDAC enzymes was performed using N-terminal GST tagged human full-length recombinant HDAC6 (H88-30G, SignalChem) and C-terminal FLAG His tag human full-length recombinant HDAC1 produced in insect cells (KDA-21-365, RBC). Enzyme reactions were run in 50 mM Tris-HCl, pH8.0, 137 mM NaCl, 2.7 mM KCl, and 1 mM MgCl2 with 1 mg/ml BSA, 1% DMSO freshly added. 2× enzyme was delivered in the wells of the reaction plate except for the “no enzyme” control wells. In the latter, buffer was added. Compounds in 100% DMSO were delved into the enzyme mixture by acoustic technology (Echo550). Plates are spun down and compounds were incubation with the enzyme for 10 min at room temperature. 2× Fluorogenic peptide from p53 residues 379-382 (RHKKAc, 10 μM final concentration) was added in all wells to initiate the reaction, followed by 1 h incubation at 30° C. Developer containing Trichostatin A was added to stop the reaction and generate fluorescent color. A kinetic measurement was carried out for 20 min with 5 min interval on the Envision plate reader (Perkin Elmer, Ex/Em=360/460). End point reading i.e., plateau of the development reaction was used for analysis. Data was reported by RBC as percentage enzyme activity. Percentage inhibition was calculated by subtracting percentage enzyme activity from 100. IC50 values were calculated using GraphPad Prism 9 based on the log(inhibitor) vs. response—Variable slope (four parameters) equation.

[3] = target: human full-length recombinant HDAC1 (Homo sapiens (Human), UniProt Q13547); assay: HDAC1 enzymatic activity assay (Reaction Biology Corporation, RHKKAc fluorogenic peptide); format: biochemical; conditions: Reaction Biology Corporation protocol, RHKKAc fluorogenic peptide 10 μM; read-out: HDAC1 biochem
Experimental: as §1

Chain of catalytic domain 2 (CD2) of HDAC6 (Q9UBN7 482-800): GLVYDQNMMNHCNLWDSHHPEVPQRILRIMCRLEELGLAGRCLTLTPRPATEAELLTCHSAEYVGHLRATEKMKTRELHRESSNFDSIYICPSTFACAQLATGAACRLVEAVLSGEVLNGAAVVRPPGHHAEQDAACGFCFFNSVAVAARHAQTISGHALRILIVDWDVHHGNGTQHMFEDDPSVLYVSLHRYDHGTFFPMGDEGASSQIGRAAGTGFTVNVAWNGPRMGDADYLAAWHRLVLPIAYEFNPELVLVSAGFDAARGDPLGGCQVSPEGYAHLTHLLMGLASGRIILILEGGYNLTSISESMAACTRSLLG
Chain of human full-length recombinant HDAC1 (Q13547 whole entry): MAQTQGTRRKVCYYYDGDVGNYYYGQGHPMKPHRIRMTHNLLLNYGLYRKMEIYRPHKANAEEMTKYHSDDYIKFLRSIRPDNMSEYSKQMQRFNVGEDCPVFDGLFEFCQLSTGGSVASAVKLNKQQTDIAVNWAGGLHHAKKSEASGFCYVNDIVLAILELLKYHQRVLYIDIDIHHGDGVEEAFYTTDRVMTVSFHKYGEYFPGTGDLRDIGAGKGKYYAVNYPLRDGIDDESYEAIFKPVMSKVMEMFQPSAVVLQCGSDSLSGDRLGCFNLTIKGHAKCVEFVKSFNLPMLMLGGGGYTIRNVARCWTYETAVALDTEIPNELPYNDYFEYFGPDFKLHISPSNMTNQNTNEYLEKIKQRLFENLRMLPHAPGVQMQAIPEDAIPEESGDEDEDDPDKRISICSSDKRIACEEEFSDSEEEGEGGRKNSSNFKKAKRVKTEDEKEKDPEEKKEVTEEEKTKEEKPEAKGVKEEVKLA
Chain of human full-length recombinant HDAC6 (Q9UBN7 whole entry): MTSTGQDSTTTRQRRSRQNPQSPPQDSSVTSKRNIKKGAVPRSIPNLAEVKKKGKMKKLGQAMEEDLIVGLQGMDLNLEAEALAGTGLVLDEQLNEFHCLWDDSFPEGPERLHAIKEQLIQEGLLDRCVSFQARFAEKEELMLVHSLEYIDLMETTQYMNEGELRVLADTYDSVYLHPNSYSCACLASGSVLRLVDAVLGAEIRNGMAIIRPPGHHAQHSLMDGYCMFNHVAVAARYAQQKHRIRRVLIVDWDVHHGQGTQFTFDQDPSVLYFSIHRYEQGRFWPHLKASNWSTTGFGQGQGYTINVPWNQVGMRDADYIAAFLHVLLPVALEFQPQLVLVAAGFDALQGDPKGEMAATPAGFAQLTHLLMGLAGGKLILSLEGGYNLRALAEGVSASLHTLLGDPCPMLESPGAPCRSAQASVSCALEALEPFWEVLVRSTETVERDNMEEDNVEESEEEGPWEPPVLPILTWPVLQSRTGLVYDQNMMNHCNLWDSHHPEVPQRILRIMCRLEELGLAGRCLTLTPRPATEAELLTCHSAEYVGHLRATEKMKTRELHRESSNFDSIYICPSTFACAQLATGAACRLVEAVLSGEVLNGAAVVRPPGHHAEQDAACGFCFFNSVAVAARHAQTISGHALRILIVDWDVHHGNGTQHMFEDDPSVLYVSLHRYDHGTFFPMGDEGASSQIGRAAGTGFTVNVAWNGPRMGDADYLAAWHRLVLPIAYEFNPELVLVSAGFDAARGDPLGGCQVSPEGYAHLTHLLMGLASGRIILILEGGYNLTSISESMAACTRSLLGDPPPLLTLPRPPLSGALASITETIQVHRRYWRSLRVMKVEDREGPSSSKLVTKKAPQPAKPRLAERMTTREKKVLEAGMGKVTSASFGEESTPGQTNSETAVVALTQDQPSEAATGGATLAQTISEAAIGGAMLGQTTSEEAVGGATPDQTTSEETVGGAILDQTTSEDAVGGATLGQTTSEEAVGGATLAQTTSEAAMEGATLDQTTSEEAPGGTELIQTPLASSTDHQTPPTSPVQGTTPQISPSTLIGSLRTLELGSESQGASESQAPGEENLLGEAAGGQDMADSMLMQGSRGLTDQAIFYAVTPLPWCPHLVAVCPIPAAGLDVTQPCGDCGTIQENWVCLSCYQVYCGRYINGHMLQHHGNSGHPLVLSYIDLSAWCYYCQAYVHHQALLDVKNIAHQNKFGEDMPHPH

Compound | IC50 [1] | IC50 [2] | IC50 [3]
O=C(CSc1nc(C(F)(F)F)nc2nn(C3CC3)cc12)c1ccc(CNC(=O)C2CC2(F)F)s1 (stereo not shown) [Example 43, N-((5-(2-((2-cyclopropyl-6-(trifluoromethyl)-2H-pyrazolo[3,4-d]pyrimidin-4-yl)thio)acetyl)thiophen-2-yl)methyl)-2,2-difluorocyclopropane-1-carboxamide] | 100 to 500 nM | ≤ 100 nM | > 10000 nM
Cc1nc(SCC(=O)c2ccc(CNC(=O)CO)s2)c2cc(Cl)c(F)cc2n1 [Compound 73, N-((5-(2-((6-chloro-7-fluoro-2-methylquinazolin-4-yl)thio)acetyl)thiophen-2-yl)methyl)-2-hydroxyacetamide] | ≤ 100 nM | ≤ 100 nM | > 10000 nM
COc1cnc2nc(C)nc(SCC(=O)c3ccc(CNC(=O)CO)s3)c2c1 [Compound 140, 2-hydroxy-N-((5-(2-((6-methoxy-2-methylpyrido[2,3-d]pyrimidin-4-yl)thio)acetyl)thiophen-2-yl)methyl)acetamide] | ≤ 100 nM | ≤ 100 nM | > 10000 nM
O=C(CSc1nc(C(F)(F)F)nc2ncccc12)c1ccc(CN2CCOCC2=O)s1 [Example 138, 4-((5-(2-((2-(trifluoromethyl)pyrido[2,3-d]pyrimidin-4-yl)thio)acetyl)thiophen-2-yl)methyl)morpholin-3-one] | ≤ 100 nM | ≤ 100 nM | > 10000 nM
COc1ccc2nc(C)nc(SCC(=O)c3ccc(CN(C)C(=O)CO)s3)c2c1 [Compound 109, 2-hydroxy-N-((5-(2-((6-methoxy-2-methylquinazolin-4-yl)thio)acetyl)thiophen-2-yl)methyl)-N-methylacetamide] | 500 to 1000 nM | ≤ 100 nM | 
CCOc1cnc2nc(C)nc(SCC(=O)c3ccc(CNC(=O)CO)s3)c2c1 [Compound 160, N-((5-(2-((6-ethoxy-2-methylpyrido[2,3-d]pyrimidin-4-yl)thio)acetyl)thiophen-2-yl)methyl)-2-hydroxyacetamide] | ≤ 100 nM | ≤ 100 nM | 
O=C(CSc1nc(C(F)(F)F)nc2nn(C3CC3)cc12)c1ccc(CNC(=O)C(F)(F)C(F)(F)F)s1 [Example 44, N-((5-(2-((2-cyclopropyl-6-(trifluoromethyl)-2H-pyrazolo[3,4-d]pyrimidin-4-yl)thio)acetyl)thiophen-2-yl)methyl)-2,2,3,3,3-pentafluoropropanamide] | 100 to 500 nM | ≤ 100 nM | > 10000 nM
CN(Cc1ccc(C(=O)CSc2nc(C(F)(F)F)nc3nn(C)cc23)s1)C(=O)CO [Compound 116, 2-hydroxy-N-methyl-N-((5-(2-((2-methyl-6-(trifluoromethyl)-2H-pyrazolo[3,4-d]pyrimidin-4-yl)thio)acetyl)thiophen-2-yl)methyl)acetamide] | 100 to 500 nM | ≤ 100 nM | 
COc1cc2c(SCC(=O)c3ccc(CNC(=O)CO)s3)nc(C)nc2cc1F [Compound 75, N-((5-(2-((7-fluoro-6-methoxy-2-methylquinazolin-4-yl)thio)acetyl)thiophen-2-yl)methyl)-2-hydroxyacetamide] |  |  | > 10000 nM

Further lines, results first:

IC50 [1] | IC50 [2] | IC50 [3] | Compound
≤ 100 nM | ≤ 100 nM | 500 to 1000 nM | O=C(CO)NCc1ccc(C(=O)CSc2nc3ncc(C(F)(F)F)cc3o2)s1 [Compound 118, 2-hydroxy-N-((5-(2-((6-(trifluoromethyl)oxazolo[4,5-b]157yrrolid-2-yl)thio)acetyl)thiophen-2-yl)methyl)acetamide]
≤ 100 nM | ≤ 100 nM | > 10000 nM | O=C(CO)NCc1ccc(C(=O)CSc2nc(C(F)(F)F)nc3nn(C4CC4)cc23)s1 [Compound 79, N-((5-(2-((2-cyclopropyl-6-(trifluoromethyl)-2H-pyrazolo[3,4-d]pyrimidin-4-yl)thio)acetyl)thiophen-2-yl)methyl)-2-hydroxyacetamide]
≤ 100 nM | ≤ 100 nM | > 10000 nM | O=C(CO)NCc1ccc(C(=O)CSc2nc3ccc(C(F)(F)F)nc3o2)s1 [Compound 117, 2-hydroxy-N-((5-(2-((5-(trifluoromethyl)oxazolo[5,4-b]157yrrolid-2-yl)thio)acetyl)thiophen-2-yl)methyl)acetamide]
≤ 100 nM | ≤ 100 nM | > 10000 nM | O=C(CO)NCc1ccc(C(=O)CSc2nc(C(F)(F)F)nc3cccnc23)s1 [Compound 152, 2-hydroxy-N-((5-(2-((2-(trifluoromethyl)pyrido[3,2-d]pyrimidin-4-yl)thio)acetyl)thiophen-2-yl)methyl)acetamide]
≤ 100 nM | ≤ 100 nM | > 10000 nM | COCCn1ncc2c(SCC(=O)c3ccc(CNC(=O)CO)s3)nc(C(F)(F)F)nc21 [Compound 125, 2-hydroxy-N-((5-(2-((1-(2-methoxyethyl)-6-(trifluoromethyl)-1H-pyrazolo[3,4-d]pyrimidin-4-yl)thio)acetyl)thiophen-2-yl)methyl)acetamide]
≤ 100 nM | ≤ 100 nM |  | Cc1nc(SCC(=O)c2ccc(CNC(=O)CO)s2)c2ncccc2n1 [Compound 153, 2-hydroxy-N-((5-(2-((2-methylpyrido[3,2-d]pyrimidin-4-yl)thio)acetyl)thiophen-2-yl)methyl)acetamide]
≤ 100 nM | ≤ 100 nM | > 10000 nM | O=C(CO)NCc1ccc(C(=O)CSc2nc(C(F)(F)F)nc3c2cnn3C2CC2)s1 [Compound 133, N-((5-(2-((1-cyclopropyl-6-(trifluoromethyl)-1H-pyrazolo[3,4-d]pyrimidin-4-yl)thio)acetyl)thiophen-2-yl)methyl)-2-hydroxyacetamide]
≤ 100 nM | ≤ 100 nM | > 10000 nM | Cc1nc(SCC(=O)c2ccc(CNC(=O)CO)s2)c2cc(C(F)(F)F)ccc2n1 [Compound 76, 2-hydroxy-N-((5-(2-((2-methyl-6-(trifluoromethyl)quinazolin-4-yl)thio)acetyl)thiophen-2-yl)methyl)acetamide]
≤ 100 nM | ≤ 100 nM | > 10000 nM | COc1cc(C(F)(F)F)cc2c(SCC(=O)c3ccc(CNC(=O)CO)s3)nc(C)nc12 [Compound 148, 2-hydroxy-N-((5-(2-((8-methoxy-2-methyl-6-(trifluoromethyl)quinazolin-4-yl)thio)acetyl)thiophen-2-yl)methyl)acetamide]
≤ 100 nM | ≤ 100 nM |  | COc1cc2c(SCC(=O)c3ccc(CNC(=O)CO)s3)nc(C(F)(F)F)nc2cn1 [Compound 154, 2-hydroxy-N-((5-(2-((6-methoxy-2-(trifluoromethyl)pyrido[3,4-d]pyrimidin-4-yl)thio)acetyl)thiophen-2-yl)methyl)acetamide]
≤ 100 nM | ≤ 100 nM | > 10000 nM | Cc1nc(SCC(=O)c2ccc(CNC(=O)CO)s2)c2cc(OC(F)(F)F)ccc2n1 [Compound 126, 2-hydroxy-N-((5-(2-((2-methyl-6-(trifluoromethoxy)quinazolin-4-yl)thio)acetyl)thiophen-2-yl)methyl)acetamide]
≤ 100 nM | ≤ 100 nM |  | COc1ccc2nc(C)nc(SCC(=O)c3ccc(CNC(=O)CO)s3)c2c1F [Compound 158, N-((5-(2-((5-fluoro-6-methoxy-2-methylquinazolin-4-yl)thio)acetyl)thiophen-2-yl)methyl)-2-hydroxyacetamide]
